Results taken from the supplement of paper PMC10307832.

Tests used:
Assay in all cases: relative viability (nuclei count vs DMSO), 5 days (fraction); higher = more cells survive
Midostaurin + Navitoclax = compound: CO[C@@H]1[C@H](N(C)C(=O)c2ccccc2)C[C@H]2O[C@]1(C)n1c3ccccc3c3c4c(c5c6ccccc6n2c5c31)C(=O)NC4 [Midostaurin] + CC1(C)CCC(c2ccc(Cl)cc2)=C(CN2CCN(c3ccc(C(=O)NS(=O)(=O)c4ccc(N[C@H](CCN5CCOCC5)CSc5ccccc5)c(S(=O)(=O)C(F)(F)F)c4)cc3)CC2)C1 [Navitoclax] (partner 0.5 µM)
In short: (§1)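 For relative viability, nuclei counts in treated wells were divided by those in vehicle wells. Lung cancer cell lines had been pin-tool dosed in 1536-well plates the day after seeding and cultured for 5 days, then fixed and stained in one step (final 0.05% Triton X-100, 1% formaldehyde, 1 ug/ml Hoechst) and imaged at 4×. Doses were one drug alone or a fixed anchor-drug dose plus five library-drug doses (not always all listed) in √10 steps, and values are duplicate-plate medians.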

[1] = compound: COc1cc(-c2nn([C@H]3CC[C@H](N4CCN(C(C)=O)CC4)CC3)c3ncnc(N)c23)ccc1NC(=O)c1cc2ccccc2n1C + C[C@@H](Oc1cc(-c2cnn(C3CCNCC3)c2)cnc1N)c1c(Cl)ccc(F)c1Cl [Crizotinib] (partner 1 µM)
In short: as §1

Midostaurin + Dasatinib = compound: CO[C@@H]1[C@H](N(C)C(=O)c2ccccc2)C[C@H]2O[C@]1(C)n1c3ccccc3c3c4c(c5c6ccccc6n2c5c31)C(=O)NC4 [Midostaurin] + Cc1nc(Nc2ncc(C(=O)Nc3c(C)cccc3Cl)s2)cc(N2CCN(CCO)CC2)n1 [Dasatinib] (partner 0.075 µM)
In short: as §1

Midostaurin + Trametinib = compound: CO[C@@H]1[C@H](N(C)C(=O)c2ccccc2)C[C@H]2O[C@]1(C)n1c3ccccc3c3c4c(c5c6ccccc6n2c5c31)C(=O)NC4 [Midostaurin] + CC(=O)Nc1cccc(-n2c(=O)n(C3CC3)c(=O)c3c(Nc4ccc(I)cc4F)n(C)c(=O)c(C)c32)c1 [Trametinib] (partner 0.02 µM)
In short: as §1

[2] = compound: COc1cc(-c2nn([C@H]3CC[C@H](N4CCN(C(C)=O)CC4)CC3)c3ncnc(N)c23)ccc1NC(=O)c1cc2ccccc2n1C + O=C(c1cc(Cc2n[nH]c(=O)c3ccccc23)ccc1F)N1CCN(C(=O)C2CC2)CC1 [Olaparib] (partner 8 µM)
In short: as §1

Cell Line	relative viability (Midostaurin + Navitoclax; first compound 0.01 µM)	relative viability (Midostaurin + Navitoclax; first compound 0.03162 µM)	relative viability (Midostaurin + Navitoclax; first compound 0.1 µM)	relative viability (Midostaurin + Navitoclax; first compound 0.3162 µM)	relative viability ([1]; first compound 0.0128 µM)	relative viability ([1]; first compound 0.04048 µM)	relative viability ([1]; first compound 0.128 µM)	relative viability ([1]; first compound 1.28 µM)	relative viability (Midostaurin + Dasatinib; first compound 0.01 µM)	relative viability (Midostaurin + Dasatinib; first compound 0.03162 µM)	relative viability (Midostaurin + Dasatinib; first compound 0.1 µM)	relative viability (Midostaurin + Dasatinib; first compound 0.3162 µM)	relative viability (Midostaurin + Trametinib; first compound 0.01 µM)	relative viability (Midostaurin + Trametinib; first compound 0.03162 µM)	relative viability (Midostaurin + Trametinib; first compound 0.1 µM)	relative viability (Midostaurin + Trametinib; first compound 0.3162 µM)	relative viability ([2]; first compound 0.0128 µM)	relative viability ([2]; first compound 0.04048 µM)	relative viability ([2]; first compound 0.128 µM)	relative viability ([2]; first compound 1.28 µM)
HCC-15	0.721	0.697	0.71	0.704	0.89	0.772	0.808	0.67	0.735	0.655	0.657	0.635	0.411	0.353	0.367	0.372	0.745	0.77	0.719	0.651
HCC-44	0.949	0.982	0.831	0.96	0.931	0.825	0.847	1.06					1.05	1.01	1.06	1.05	1.1	1.09	0.916	1.27
HCC-78	0.835	0.638	0.815	0.341	0.338	0.432	0.325	0.18	0.375	0.371	0.373	0.219	0.757	0.612	0.739	0.463	0.938	0.933	0.768	0.456
HCC-366	1.07	1.16	1	1.06	0.692	0.679	0.546	0.281	0.634	0.583	0.537	0.638	0.304	0.33	0.283	0.122	0.394	0.328	0.361	0.252
HCC-827	1.03	0.987	0.958	1.1	0.903	0.963	0.94	0.685	0.417	0.441	0.386	0.341	0.557	0.488	0.607	0.641	0.657	0.572	0.574	0.48
HOP-62	0.928	0.981	0.957	1.04	0.887	0.957	0.803	0.714	0.674	0.675	0.643	0.509	0.473	0.42	0.362	0.362	0.657	0.533	0.366	0.478
IA-LM	0.81		0.701	0.631	1.02	1.07	0.903	1.1									0.871	0.877	1.03	0.961
LCLC-103H					1.17	1.22	0.993	1.07	0.545	0.456	0.389	0.416	0.723	0.686	0.717	0.681	0.851	0.79	0.615	0.773
NCI-H358					0.563	0.619	0.586	0.368	0.177	0.124	0.15	0.208	0.146	0.158	0.133	0.14	0.587	0.513	0.526	0.374
NCI-H522									0.981	0.995	0.789	1.04	0.719	0.825	0.752	0.839	0.558	0.593	0.617	0.522
NCI-H650					0.665	0.716	0.603	0.739	0.401	0.406	0.385	0.315	1.03	1.07	1	0.945	0.418	0.453	0.407	0.468
NCI-H661					1.09	1.03	1.07	1.1	0.882	0.806	0.852	0.737	0.597	0.617	0.61	0.534	0.817	0.843	0.724	0.763
NCI-H1299	1.07	0.989	1.01	1.01	0.966	1.07	0.987	1.13									0.978	1.01	0.914	1.01
NCI-H1395	1.11	1.09	1.17	1.25					0.435	0.38	0.404	0.403	0.978	0.991	1.15	1.08	0.437	0.466	0.442	0.434
NCI-H1563					0.625	0.805	0.926	0.729	0.402	0.469	0.43	0.465								
NCI-H1648													0.532			0.432	0.94	0.928	1.23	0.515
NCI-H1703	1.21	0.974	0.75	0.312	0.585	0.73	0.496	0.206									0.386	0.283	0.386	0.184
NCI-H1793	0.417	0.533	0.513	0.493					0.481	0.38	0.345	0.362	0.403	0.402	0.438	0.428	0.989	1.08	0.731	0.427
NCI-H2342									0.332	0.305	0.319	0.327	0.895	0.735	0.89	0.778	0.511	0.423	0.388	0.371
SW 900									0.7	0.684	0.538	0.275	0.759	0.919	0.743	0.962	1	1.17	0.845	0.574
